{
  "source": "patent EP0016946A1",
  "about": "“Process and reagent for the activation of cholesterol esterase” (BOEHRINGER MANNHEIM GMBH, priority 1979, dated 1980)",
  "tested_on": "Cholesterinesterase",
  "assay": "Cholesterol esterase activity: rate of ester cleavage, continuous-flow apparatus with photometric cholesterol indicator reaction (546 nm)",
  "type": "biochemical",
  "experimental": "Zum Nachweis der aktivierenden Wirkung der zu untersuchenden synergistischen Kombinationen der Erfindung auf Cholesterinesterase wurde die in Fig. 1 dargestellte Apparatur verwendet.\nAus einem temperierbaren Reaktionsgefäß 1 (25°C), in dem sich die Esterspaltung vollzieht, werden über eine Schlauchpumpe 2 durch einen Förderschlauch 3 definierten Querschnitts kontinuierlich o,32 ml Gemisch/Minute entnommen. über die gleiche Pumpe wird durch einen zweiten Schlauch 4 aus einem Vorratsgefäß 5 ebenfalls kontinuierlich 1,o ml Indikatorlösung/Minute gefördert, hinter der Pumpe 2 mit einem Luftstrom 6 von konstant o,6 ml Luft/ Minute zusammengeführt und damit segmentiert und dann mit dem zuvor beschriebenen Reaktionsgemischstrom vereinigt. Der Gesamtstrom passiert daraufhin zwei Glasschlangen 7, wodurch eine Durchmischung der Flüssigkeiten und die notwendige Reaktionszeit für die Indikatorreaktion bis zum Endpunkt gewährleistet wird. Durch Abziehen eines Stroms von 1,2 ml/Minute unmittelbar vor der Küvette durch Schlauchleitung 8 senkrecht nach oben werden die Luftblasen wieder entfernt. Der nicht segmentierte Reststrom wird zur photometrischen Messung (bei 546 nm) in eine Durchflußküvette (1 cm Schichtdicke) geleitet und die Meßwerte werden vom Schreiber 1o registriert.\nWegen der gleichbleibenden Bedingungen bezüglich der Indikatorreaktion sind Änderungen in Höhe und Verlauf des Meßsignals allein von den Vorgängen im Reaktionsgefäß abhängig. Findet dort eine Esterspaltung statt, so bewirkt deren kinetischer Verlauf eine Zunahme des Meßsignals, welches als positive Steigung mit dem Schreiber 1o registriert wird. Die Steilheit des Anstiegs ist ein Maß für die Reaktionsgeschwindigkeit und damit für die Cholesterinesteraseaktivität im Reaktionsansatz.\nWegen des getrennten Ablaufs von Esterspaltung und Indikatorreaktion ist eine gegenseitige Beeinflussung ausgeschlossen. Natürlich wären auch andere Indikatorsysteme einschließlich der Sauerstoffelektrode verwendbar.\nDie Indikatorlösung setzt zunächst freies Cholesterin zu Cholestenon und H202 um. Das entstandene H202 wird mit Phenol und 4-Aminoantipyrin zu einem roten Farbstoff umgesetzt, dessen Absorption photometrisch gemessen wird. Die Menge des entstehenden Farbstoffs ist der Konzentration des freien Cholesterins proportional. Die Konzentration an freiem Cholesterin setzt sich aus dem bereits im Substrat vorhandenen Anteil an freiem Cholesterin sowie aus dem durch die Esterase freigesetzten Cholesterin zusammen.\nStart mit 50 µl einer Esterase-Stocklösung, woraufhin o,oo3 U/ml Esterase im Ansatz vorliegen. Bei Aktivitätsabstufungen wurde diese Menge variiert.\nNach erfolgtem Start und Durchmischung wird bei laufender Pumpe 2 der Förderschlauch 3 in die Lösung im Reaktionsgefäß 1 für etwa 1o Minuten eingetaucht. Anschließend wird zur besseren Trennung der Signale in jeweils etwa 1o Segmenten wechselweise Luft und bidest. Wasser angesaugt. Daraufhin kann die nächste Bestimmung erfolgen.",
  "data": [
    {"compound": "OC1CCCCC1", "note": "[Cyclohexanol]", "values": [
      {"measurement": "Resultierende Geschwindigkeit gegenüber Vergleichswert", "setting": "1 Vol.-% additive, o,3 M Kaliumphosphatpuffer, pH 7,o, reduced Tergitol NPX concentration with adjuvant vs detergent concentration optimum without adjuvant, o,oo3 U/ml Cholesterinesterase", "result": "Der Vergleichswert wird deutlich übertroffen"},
      {"measurement": "Resultierende Geschwindigkeit gegenüber Vergleichswert", "setting": "2 Vol.-% additive (example 6.3), 15 %o Tergitol NPX, 0,003 U/ml Cholesterinesterase, o,1 M Kaliumphosphatpuffer, pH 7,o with adjuvant vs o,3 M buffer without adjuvant, 25°C", "result": "Der Vergleichswert wird deutlich übertroffen"},
      {"measurement": "Resultierende Geschwindigkeit gegenüber Vergleichswert", "setting": "2 Vol.-% additive, 0,3 M Kaliumphosphatpuffer, pH 7,o, reduced Genapol OX-1oo/Natriumcaprylat concentration with adjuvant vs detergent concentration optimum without adjuvant, o,oo3 U/ml Cholesterinesterase", "result": "Der Vergleichswert wird übertroffen"},
      {"measurement": "Resultierende Geschwindigkeit gegenüber Vergleichswert", "setting": "2 Vol.-% additive, 1o %o Genapol OX-1oo/1o %o Na-Caprylat, o,oo3 U/ml Cholesterinesterase, o,1 M Kaliumphosphatpuffer, pH 7,o with adjuvant vs o,3 M buffer without adjuvant", "result": "Der Vergleichswert wird übertroffen"}
    ]},
    {"compound": "OCC(Cl)(Cl)Cl", "note": "[2,2,2-Trichloräthanol]", "values": [
      {"measurement": "Resultierende Geschwindigkeit gegenüber Vergleichswert", "setting": "1 Vol.-% additive, 1o %o Genapol OX-1oo/1o %o Na-Caprylat, o,oo3 U/ml Cholesterinesterase, o,1 M Kaliumphosphatpuffer, pH 7,o with adjuvant vs o,3 M buffer without adjuvant", "result": "Der Vergleichswert wird übertroffen"},
      {"measurement": "Resultierende Geschwindigkeit gegenüber Vergleichswert", "setting": "o,1 Vol.-% additive, o,3 M Kaliumphosphatpuffer, pH 7,o, reduced Tergitol NPX concentration with adjuvant vs detergent concentration optimum without adjuvant, o,oo3 U/ml Cholesterinesterase", "result": "Der Vergleichswert wird übertroffen"},
      {"measurement": "Resultierende Geschwindigkeit gegenüber Vergleichswert", "setting": "o,3 Vol.-% additive, 0,3 M Kaliumphosphatpuffer, pH 7,o, reduced Genapol OX-1oo/Natriumcaprylat concentration with adjuvant vs detergent concentration optimum without adjuvant, o,oo3 U/ml Cholesterinesterase", "result": "Der Vergleichswert wird deutlich übertroffen"}
    ]},
    {"compound": "CC(C)CC(C)O", "note": "(stereo not shown) [4-Methylpentanol-(2)]", "values": [
      {"measurement": "Resultierende Geschwindigkeit gegenüber Vergleichswert", "setting": "1,4 Vol.-% additive, 15 %o Tergitol NPX, 0,003 U/ml Cholesterinesterase, o,1 M Kaliumphosphatpuffer, pH 7,o with adjuvant vs o,3 M buffer without adjuvant, 25°C", "result": "Der Vergleichswert wird übertroffen"},
      {"measurement": "Resultierende Geschwindigkeit gegenüber Vergleichswert", "setting": "1 Vol.-% additive, 0,3 M Kaliumphosphatpuffer, pH 7,o, reduced Genapol OX-1oo/Natriumcaprylat concentration with adjuvant vs detergent concentration optimum without adjuvant, o,oo3 U/ml Cholesterinesterase", "result": "Der Vergleichswert wird erreicht"}
    ]},
    {"compound": "Oc1ccccc1", "note": "[Phenol]", "values": [
      {"measurement": "Resultierende Geschwindigkeit gegenüber Vergleichswert", "setting": "4o mM (ca. o,35 Gew.-%) additive, 1o %o Genapol OX-1oo/1o %o Na-Caprylat, o,oo3 U/ml Cholesterinesterase, o,1 M Kaliumphosphatpuffer, pH 7,o with adjuvant vs o,3 M buffer without adjuvant", "result": "Der Vergleichswert wird erreicht"}
    ]}
  ]
}
